Experimental data from patent US10131744B2, “Antimicrobial polyamide compositions and mastitis treatment” (priority 2013, dated 2018).

What was measured:
Klebsiella species = assay: MIC in broth against Klebsiella species; type: cell-based
Procedure: (§1) The antimicrobial efficacy of twenty-five antimicrobial polymers (and Erythromycin) was evaluated using an MIC assay. For each study, a doubling dilution concentration of each antimicrobial polymer was prepared at 2× the final concentration range (0.12 to 16 μg/mL), and 100 μL of the API-null formulation was dispensed into the negative control wells. Overall, the antimicrobial polymer-containing compositions performed comparably well, or better, against the pathogens, as compared to Erythromycin (ERY).

[1] = test system: Pasteurella multocida (Canine and BRD); assay: MIC in broth against Pasteurella multocida; type: cell-based
Procedure: as §1

Serratia marcescens = assay: MIC in broth against Serratia marcescens; type: cell-based; design: unit not given beside the values
Procedure: as §1

[2] = test system: S. pneumoniae (Str-53) ATCC 49619; assay: MIC in broth against S. pneumoniae; type: cell-based; conditions: Streptococcus pneumoniae, ATCC49619
Procedure: The antimicrobial efficacy of twenty-five antimicrobial polymers (and Erythromycin) was evaluated using an MIC assay. […] Overall, the antimicrobial polymer-containing compositions performed comparably well, or better, against the pathogens, as compared to Erythromycin (ERY).

[3] = test system: Bordetella bronchiseptica; assay: MIC in broth against Bordetella bronchiseptica; type: cell-based
Procedure: as §1

Mannheimia haemolytica = assay: MIC in broth against Mannheimia haemolytica; type: cell-based
Procedure: as §1

Escherichia coli = assay: MIC in broth against Escherichia coli; type: cell-based
Procedure: as §1

[4] = test system: Staphylococcus aureus (including MRSA); assay: MIC in broth against Staphylococcus aureus (including MRSA); type: cell-based; design: MIC against Staphylococcus aureus including MRSA: unit: μg/mL
Procedure: as §1

Streptococcus agalactiae = assay: MIC in broth against Streptococcus agalactiae; type: cell-based; design: unit not given beside the values
Procedure: as §1

[5] = test system: S. pneumoniae (Str-53) ATCC 49619; conditions: cited from earlier work

CC[C@H]1OC(=O)[C@H](C)[C@@H](O[C@H]2C[C@@](C)(OC)[C@@H](O)[C@H](C)O2)[C@H](C)[C@@H](O[C@@H]2O[C@H](C)C[C@H](N(C)C)[C@H]2O)[C@](C)(O)C[C@@H](C)C(=O)[C@H](C)[C@@H](O)[C@]1(C)O [Ery, Erythromycin]
0.5: MIC against Pasteurella multocida ([1]; strain # 168) | MIC against Pasteurella multocida ([1]; strain # 171) | MIC against Pasteurella multocida ([1]; strain # 176) | MIC against Staphylococcus aureus including MRSA ([4]; strain # 112)
4 µg/mL: MIC (Mannheimia haemolytica; isolate # 158) | MIC (Mannheimia haemolytica; isolate # 160) | MIC (Mannheimia haemolytica; isolate # 163) | MIC (Mannheimia haemolytica; isolate # 167)
>8: MIC against Pasteurella multocida ([1]; strain # 183) | MIC against Pasteurella multocida ([1]; strain # 185) | MIC against Pasteurella multocida ([1]; strain # 187) | MIC against Serratia marcescens (Serratia marcescens; isolate # 68) | MIC against Serratia marcescens (Serratia marcescens; isolate # 69) | MIC against Serratia marcescens (Serratia marcescens; isolate # 70) | MIC against Serratia marcescens (Serratia marcescens; isolate # 71) | MIC against Serratia marcescens (Serratia marcescens; isolate # 72) | MIC against Serratia marcescens (Serratia marcescens; isolate # 73) | MIC against Serratia marcescens (Serratia marcescens; isolate # 74) | MIC against Serratia marcescens (Serratia marcescens; isolate # 75) | MIC against Serratia marcescens (Serratia marcescens; isolate # 76) | MIC against Serratia marcescens (Serratia marcescens; isolate # 77) | MIC against Staphylococcus aureus including MRSA ([4]; strain # 108) | MIC against Staphylococcus aureus including MRSA ([4]; strain # 110) | MIC against Staphylococcus aureus including MRSA ([4]; strain # 111) | MIC against Staphylococcus aureus including MRSA ([4]; strain # 113) | MIC against Staphylococcus aureus including MRSA ([4]; strain # 114) | MIC against Staphylococcus aureus including MRSA ([4]; strain # 115) | MIC against Staphylococcus aureus including MRSA ([4]; strain # 116) | MIC against Staphylococcus aureus including MRSA ([4]; strain # 117) | MIC against Staphylococcus aureus including MRSA ([4]; strain # 118) | MIC against Staphylococcus aureus including MRSA ([4]; strain # 119) | MIC against Staphylococcus aureus including MRSA ([4]; strain # 120) | MIC against Staphylococcus aureus including MRSA ([4]; strain # 121) | MIC against Staphylococcus aureus including MRSA ([4]; strain # 122) | MIC against Staphylococcus aureus including MRSA ([4]; strain # 123) | MIC against Staphylococcus aureus including MRSA ([4]; strain # 124) | MIC against Staphylococcus aureus including MRSA ([4]; strain # 125) | MIC against Staphylococcus aureus including MRSA ([4]; strain # 126) | MIC against Staphylococcus aureus including MRSA ([4]; strain # 127)
8: MIC against Pasteurella multocida ([1]; strain # 174)
0.03: MIC against Streptococcus agalactiae (Streptococcus agalactiae; isolate # 188) | MIC against Streptococcus agalactiae (Streptococcus agalactiae; isolate # 190) | MIC against Streptococcus agalactiae (Streptococcus agalactiae; isolate # 191) | MIC against Streptococcus agalactiae (Streptococcus agalactiae; isolate # 194) | MIC against Streptococcus agalactiae (Streptococcus agalactiae; isolate # 195) | MIC against Streptococcus agalactiae (Streptococcus agalactiae; isolate # 196) | MIC against Streptococcus agalactiae (Streptococcus agalactiae; isolate # 197)
1: MIC against Pasteurella multocida ([1]; strain # 169) | MIC against Pasteurella multocida ([1]; strain # 170) | MIC against Pasteurella multocida ([1]; strain # 172) | MIC against Pasteurella multocida ([1]; strain # 175) | MIC against Staphylococcus aureus including MRSA ([4]; strain # 109)
0.25: MIC against Staphylococcus aureus including MRSA ([4]; strain # 98) | MIC against Staphylococcus aureus including MRSA ([4]; strain # 99) | MIC against Staphylococcus aureus including MRSA ([4]; strain # 100) | MIC against Staphylococcus aureus including MRSA ([4]; strain # 101) | MIC against Staphylococcus aureus including MRSA ([4]; strain # 102) | MIC against Staphylococcus aureus including MRSA ([4]; strain # 103) | MIC against Staphylococcus aureus including MRSA ([4]; strain # 104) | MIC against Staphylococcus aureus including MRSA ([4]; strain # 105) | MIC against Staphylococcus aureus including MRSA ([4]; strain # 106) | MIC against Staphylococcus aureus including MRSA ([4]; strain # 107)
.03 to .12 µg/mL: Known range (MIC) [5]
0.06: MIC against Streptococcus agalactiae (Streptococcus agalactiae; isolate # 189) | MIC against Streptococcus agalactiae (Streptococcus agalactiae; isolate # 192) | MIC against Streptococcus agalactiae (Streptococcus agalactiae; isolate # 193)
0.06 µg/mL: MIC [2]
2 µg/mL: MIC ([3]; isolate # 80 (canine/feline)) | MIC ([3]; isolate # 82 (canine/feline)) | MIC (Mannheimia haemolytica; isolate # 162) | MIC (Escherichia coli; isolate # 1 (mastitis))
> 8 µg/mL: MIC (Klebsiella species; Klebsiella, isolate # 28) | MIC ([3]; isolate # 85 (canine/feline)) | MIC ([3]; isolate # 86 (canine/feline)) | MIC (Mannheimia haemolytica; isolate # 159) | MIC (Mannheimia haemolytica; isolate # 161) | MIC (Mannheimia haemolytica; isolate # 164) | MIC (Mannheimia haemolytica; isolate # 165) | MIC (Escherichia coli; isolate # 2 (mastitis)) | MIC (Escherichia coli; isolate # 3 (mastitis)) | MIC (Escherichia coli; isolate # 4 (mastitis)) | MIC (Escherichia coli; isolate # 5 (mastitis)) | MIC (Escherichia coli; isolate # 6 (mastitis)) | MIC (Escherichia coli; isolate # 7 (mastitis)) | MIC (Escherichia coli; isolate # 8 (mastitis)) | MIC (Escherichia coli; isolate # 9 (mastitis)) | MIC (Escherichia coli; isolate # 10 (mastitis)) | MIC (Escherichia coli; isolate # 11 (canine wound)) | MIC (Escherichia coli; isolate # 12 (canine wound)) | MIC (Escherichia coli; isolate # 13 (canine wound)) | MIC (Escherichia coli; isolate # 14 (canine wound)) | MIC (Escherichia coli; isolate # 15 (canine wound)) | MIC (Escherichia coli; isolate # 16 (canine wound)) | MIC (Escherichia coli; isolate # 17 (canine wound)) | MIC (Escherichia coli; isolate # 18 (canine wound)) | MIC (Escherichia coli; isolate # 19 (canine wound)) | MIC (Escherichia coli; isolate # 20 (canine wound))
>8 µg/mL: MIC against Klebsiella species (Klebsiella species; isolate # 29) | MIC against Klebsiella species (Klebsiella species; isolate # 30) | MIC against Klebsiella species (Klebsiella species; isolate # 31) | MIC against Klebsiella species (Klebsiella species; isolate # 32) | MIC against Klebsiella species (Klebsiella species; isolate # 33) | MIC against Klebsiella species (Klebsiella species; isolate # 34) | MIC against Klebsiella species (Klebsiella species; isolate # 35) | MIC against Klebsiella species (Klebsiella species; isolate # 36) | MIC against Klebsiella species (Klebsiella species; isolate # 37) | MIC against Klebsiella species (Klebsiella species; isolate # 38) | MIC against Klebsiella species (Klebsiella species; isolate # 39) | MIC against Klebsiella species (Klebsiella species; isolate # 40) | MIC against Klebsiella species (Klebsiella species; isolate # 41) | MIC against Klebsiella species (Klebsiella species; isolate # 42) | MIC against Klebsiella species (Klebsiella species; isolate # 43) | MIC against Klebsiella species (Klebsiella species; isolate # 44) | MIC against Klebsiella species (Klebsiella species; isolate # 45) | MIC against Klebsiella species (Klebsiella species; isolate # 46) | MIC against Klebsiella species (Klebsiella species; isolate # 47)
4: MIC against Pasteurella multocida ([1]; strain # 178)
1 µg/mL: MIC (Mannheimia haemolytica; isolate # 166)
2: MIC against Pasteurella multocida ([1]; strain # 173) | MIC against Pasteurella multocida ([1]; strain # 177) | MIC against Pasteurella multocida ([1]; strain # 179) | MIC against Pasteurella multocida ([1]; strain # 180) | MIC against Pasteurella multocida ([1]; strain # 181) | MIC against Pasteurella multocida ([1]; strain # 182) | MIC against Pasteurella multocida ([1]; strain # 184) | MIC against Pasteurella multocida ([1]; strain # 186)
0.5 µg/mL: MIC ([4]; Staphylococcus aureus, ATCC 29213 / MRSA, S. aureus (Sta-3) ATCC 29213)
8 µg/mL: MIC ([3]; isolate # 78 (canine/feline)) | MIC ([3]; isolate # 79 (canine/feline)) | MIC ([3]; isolate # 81 (canine/feline)) | MIC ([3]; isolate # 83 (canine/feline)) | MIC ([3]; isolate # 84 (canine/feline)) | MIC ([3]; isolate # 87 (canine/feline))
